According to US20260294885A1, “TREATMENT OF INFLAMMATORY CONDITIONS COMPRISING IMU-856” (IMMUNIC AG, priority 2023, published 2026):
Entries after “also recorded” stand apart in the source; their conditions may differ.

Columns and labels:
plasma citrulline = assay: Plasma citrulline, Part C; type: in vivo, human
Protocol: (§1) In Part A, healthy subjects were randomised to single ascending doses of IMU-856 (10 mg to 160 mg) or placebo. In Part B healthy subjects were randomised to multiple once-daily doses of IMU-856 (40, 80, and 160 mg) or placebo for 14 days. Part C randomised patients with celiac disease who were on a gluten-free diet to multiple once-daily doses of IMU-856 (80 mg and 160 mg) or placebo for 28 days; a once-daily gluten challenge (6 g) was introduced on Day 14 and ended on Day 28. 71 healthy subjects were enrolled in Part A and B (N=19 placebo and N=52 IMU-856) and 43 patients with CelD in Part C (N=14 placebo; N=14 for 80 mg, and N=15 for 160 mg). In Parts A and B, treatment-emergent adverse events (TEAEs) occurred in 24 (73%) and 15 (79%) of subjects receiving any dose of IMU-856 compared to 6 (50%) and 5 (71%) with placebo, respectively. […] In Part C, the most common adverse events with any dose of IMU-856 by preferred term were headache (13 [45%]), nausea (9 [31%]), diarrhoea (8 [28%]), and abdominal distension (7 [24%]). […] In Part C, the mean change in villous height from baseline to Day 29 with 80 mg and 160 mg was −20.9±34.8 μm, and −22.5±51.1 μm, respectively, and −60.3±52.2 μm with placebo. […] Mean change in plasma citrulline increased with 80 mg and 160 mg from baseline to Day 14 (2.4±6.2 and 6.1±5.9 μmol/L, respectively) and from baseline to Day 29 (2.8±7.6 and 2.2±5.3 μmol/L, respectively), but not with placebo (−2.7±5.6 and −4.0±6.5 μmol/L). […] Mean increase in zinc levels from baseline to Day 29 with 80 mg and 160 mg were 0.3±1.4 and 0.9±2.1 μmol/L compared to a mean decrease in placebo (−0.9±2.1 μmol/L). Gluten-induced symptoms were also attenuated by IMU-856.
Also, biomarker response upon treatment of CelD with IMU-856 was assessed. […] A wide inter-individual range of IL-2 response leads to large SD, especially in the placebo group. […]

[1] = system: other members of the human SIRT protein family; assay: Selectivity over other members of the SIRT family; type: biochemical
DSS-induced colitis = assay: Therapeutic DSS-induced colitis mouse model (Example 3); type: in vivo, male C57BL/6 mice; conditions: 1 mg/kg per oral gavage once daily for 5 days from disease onset
Protocol: For this model, which is an often-used in vivo model for IBD, male C57BL/6 mice were treated with 2.8% DSS in drinking water for 5 days. Treatment with either vehicle (PEG400), 60 mg/kg sulfasalazine (positive control) or 1 mg/kg IMU-856 was given at disease onset (day 4 after start of DSS treatment) per oral gavage once daily for 5 days. Diarrhea score (normal consistency; soft; pasty, unshaped, not sticking to anus; diarrhea, sticking to anus; diarrhea with macroscopic bleeding) was assessed daily.
At the end of the study, mice were sacrificed and the colon was collected. Colon histology score consisting of an architecture score (0-3) and an infiltration score (0-3) was assessed based on hematoxylin and eosin-stained tissues slices.

IL-2 = assay: Serum IL-2 release on gluten challenge, Part C; type: in vivo, human; conditions: first day of gluten challenge (Day 14)
Protocol: Also, biomarker response upon treatment of CelD with IMU-856 was assessed. […] A wide inter-individual range of IL-2 response leads to large SD, especially in the placebo group. The inter-individual variance regarding IL-2 response decreases with increasing dose levels as illustrated in FIG. 8 (N=39/43 included in IL-2 analysis set. 3 patients not included in this analysis due to early termination and 1 incomplete IL-2 sampling due to site error. Methods used for IL-2 analysis: Milliplex® Human High Sensitivity T Cell Magnetic Bead Panel, 3 plex (Luminex®) and Simoa® CorPlex™ Human IL-2 Kit (Quanterix)).
FIG. 8 illustrates the mean absolute change and maximum change in serum IL-2 (in pg/mL) from pre-gluten to 4 hours post-gluten on first day of gluten challenge (IL: interleukin; SD: standard deviation).

[2] = system: patients with celiac disease; assay: Mean corpuscular hemoglobin concentration, Part C; type: in vivo, human; conditions: Baseline to Day 29
Excerpt: Since hemoglobin is the molecule to which oxygen attaches, MCHC is a measure of the average oxygen-carrying capacity of the red blood cells in circulating the body (https://www.verywellhealth.com/mean-cell-hemoglobin-concentration-4584155).

CaCo2 cells = assay: In vitro intestinal barrier function model (TEER, Example 2); type: cell-based, human; conditions: compared to vehicle control, after 4 h chemical challenge
Excerpt: CaCo2 cell line is derived from human epithelial cells from the colon. They are frequently used to mimic intestinal barrier function to either look at permeability of drugs or to look at is functional resistance. For the present experiment, the CaCo2 cells were used to mimic the loss of its barrier function upon challenging the cells with [COMPOUND LEFT OUT] sulfonic acid [COMPOUND LEFT OUT] and investigate the effect of IMU-856 on this by measuring the electrical transepithelial resistance (TEER). […] For this CaCo2 cells, cultivated in a 6-well trans well plate on top of the membrane that has small pores that prevent the cells from going through but allow molecules and nutrients to pass. After 3 weeks, when the TEER is stable, the monolayer is challenged with 0.25% [COMPOUND LEFT OUT] stimulation for 4 h. Then, cells were washed and fresh medium with vehicle or IMU-856 was given. TEER was measured before and after challenge at different time points. For correct measurement, the shorter electrode is inserted into the transwell chamber (without touching the cells), and the longer electrode is inserted in the outer well.

claudin-2 = assay: Tight junction protein claudin-2 in a TEER model; type: cell-based, human
Excerpt: (§2) In one TEER model, tight junction (TJ)-related proteins were investigated, and a normalisation of TJ proteins (claudin (Cldn)-1 and claudin-2) was observed.

SIRT6 = SIRT6 (Homo sapiens, UniProt Q8N6T7); assay: SIRT6 deacetylation of acetylated H3K56 in a cellular system; type: cell-based
[3] = system: sirtuin 6 protein (SIRT6); assay: SIRT6 protein stabilization
[4] = system: dextran sodium sulphate (DSS)-induced colitis; assay: DSS-induced colitis model in mice (different settings); type: in vivo; conditions: different settings of DSS colitis model
claudin (Cldn)-1 = assay: Tight junction protein claudin-1 in a TEER model; type: cell-based, human
Excerpt: as §2

[5] = Clinical pharmacokinetics; type: in vivo, human
Protocol: as §1

Sequence of SIRT6 (Q8N6T7 whole entry): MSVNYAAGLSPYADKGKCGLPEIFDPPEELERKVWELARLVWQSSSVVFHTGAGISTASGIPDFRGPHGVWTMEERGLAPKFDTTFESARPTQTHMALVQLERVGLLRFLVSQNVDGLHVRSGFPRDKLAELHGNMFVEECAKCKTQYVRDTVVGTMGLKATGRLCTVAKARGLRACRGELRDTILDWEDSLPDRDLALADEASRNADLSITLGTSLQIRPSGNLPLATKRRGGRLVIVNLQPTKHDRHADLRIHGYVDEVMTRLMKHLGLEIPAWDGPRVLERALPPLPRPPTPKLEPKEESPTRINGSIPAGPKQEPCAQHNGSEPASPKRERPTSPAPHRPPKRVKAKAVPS

SMILES: Cn1c(COc2cc(C(F)(F)F)ccn2)nnc1[C@H]1CC[C@H](c2cnn([C@H]3CC[C@H](N4CC5(CCO5)C4)CC3)c2)CC1 [IMU-856, 6-(trans-4-(4-(trans-4-(4-methyl-5-(((4-(trifluoromethyl)pyridin-2-yl)oxy)methyl)-4H-1,2,4-triazol-3-yl)cyclohexyl)-1H-pyrazol-1-yl)cyclohexyl)-1-oxa-6-azaspiro[3.3]heptane]
- mean change in plasma citrulline (plasma citrulline; 80 mg, baseline to Day 14): 2.4 ± 6.2 µmol/L
- mean change in plasma citrulline (plasma citrulline; 160 mg, baseline to Day 29): 2.2 ± 5.3 µmol/L
- citrulline levels (plasma citrulline; in words): increased citrulline levels dose proportionally; also recorded: increased in both active treatment arms
- selectivity for SIRT6 over other SIRT family members [1]: highly selective for SIRT6
- colon histology score (DSS-induced colitis): reduction in the histology score
- diarrhea score (DSS-induced colitis): improvement of the diarrhea score which was similar or even better than the positive control
- gluten-induced acute immune response, IL-2 release (IL-2): dampens gluten-induced acute immune response, as measured by IL-2 release, in a dose-dependent fashion; also recorded: dose-dependent lessening of acute immune response
- mean corpuscular hemoglobin concentration (MCHC) [2]: higher mean corpuscular hemoglobin concentration; also recorded: improvement in red blood cell function
- TEER (CaCo2 cells): higher TEER
- TEER recovery rate (CaCo2 cells): higher recovery rate
- claudin-2 (claudin-2): normalisation
- deacetylation of H3K56 (SIRT6): prevents the deacetylation
- stabilization of sirtuin 6 protein [3]: stabilizer
- colon length [4]: increasing colon length
- colon mucosal histology [4]: improving colon mucosal histology
- diarrhea symptoms [4]: improving diarrhea symptoms
- disease severity [4]: reducing disease severity
- claudin-1 (claudin (Cldn)-1): normalisation
- accumulation factor ([5]; daily dosing): low accumulation factor
- steady-state plasma concentrations, time to achievement ([5]; daily dosing): within the first week
- half-life ([5]; human, plasma, steady-state): 17.4 to 21.5 h
- Tmax ([5]; human, plasma, steady-state, post-dose): 2 to 3 h
- steady-state trough levels ([5]; over the 14-day treatment period): stable steady-state trough levels
- AUC dose dependence ([5]; steady-state): dose proportional increases
- Cmax dose dependence ([5]; steady-state): dose proportional increases
